Entries after “also recorded” stand apart in the source; their conditions may differ. Peptide text beside a SMILES is read from it. * marks the point of attachment. Cbz = O=C(OCc1ccccc1)*

Test [1] has as its system HT1080V and HT1080I cells. The test can be described thus: Cell viability of HT1080V and HT1080I cells treated with cytotoxic agent (data not shown). The format is cell-based, human. The method, then: The present inventors' preliminary data additionally indicate that cell killing by vincristine is augmented by the inhibition of NF-κB (data not shown). HT1080V and HT1080I cells were treated with vincristine and cell viability was determined.

Test [2] relates to HT1080 fibrosarcoma cells. The test can be described thus: TNF-induced apoptosis detected by TUNEL staining. The format is cell-based, human. Particulars: 50 ng/ml TNFα for 7 hr; HT1080V and HT1080I cells; FIG. 1B. The method, then: TNF-induced apoptosis was detected by TUNEL staining (Graeber et al., Nature 379:88 (1996)). HT1080V (V) and HT1080I (I) cells were untreated (−TNF) or stimulated (+TNF) with 50 ng/ml TNFα for 7 hr and fixed with 4% paraformaldehyde. The staining was done according to the manufacturer's instructions (Boehringer Mannheim).

Test [3] has as its system HT1080 fibrosarcoma cells. Briefly: Cell survival by crystal violet assay in HT1080V and HT1080I cells. The format is cell-based, human. The method, then:
HT1080V (open squares) and HT1080I cells (solid diamonds) were treated with TNFα (20 ng/ml) for varying times and surviving cells were quantified by crystal violet assay (Mehlen et al., EMBO J. 15:2695 (1996)). Data shown (FIG. 1A) are the mean of three independent experiments ±SD, and the percentage cell survival was defined as the relative number of TNF treated versus untreated cells.
HT1080V and HT1080I cells were preincubated with 10 ng/ml IL-1β (R & D Systems) for 5 hours (+Pre IL-1), or were left untreated. Cells were then treated with 10 μg/ml cycloheximide (CHX) and different concentrations of TNFα (0-50 ng/ml). Surviving cells were quantified by crystal violet assay (Mehlen et al., EMBO J. 15:2695 (1996)). […] Open squares represent HT1080V cells without IL-1 pretreatment; closed squares represent HT1080V cells pretreated with IL-1; circles represent HT1080I cells without IL-1 pretreatment; triangles represent HT1080I cells pretreated with IL-1.

Test [4] relates to NF-κB. The test can be described thus: Electrophoretic mobility-shift assay (EMSA) of NF-κB nuclear translocation in HT1080V and HT1080I cells. The format is cell-based, human. The method, then:
HT1080 fibrosarcoma cells were co-transfected with the pCMV empty vector to produce control cells HT1080V; HT1080 cells co-transfected with the pCMV vector containing a cDNA encoding the super-repressor IκBα and with the pCEP4 vector for hygromycin B selection (400 μg/ml) provided HT1080I cells that expressed the super-repressor IκBα.
(In general: Mobility shift assays separate free from complexed probe on a gel.)

Test [5] deals with NF-κB. Briefly: NF-κB activation by CPT-11 (data not shown). The format is cell-based.
Another test has as its system HT1080V cells. The test can be described thus: Cell viability experiments, enhancement of TNF-induced cell killing by proteasome inhibitor. The format is cell-based, human. Particulars: dose-dependent, data not shown. The source says: The effect of a proteasome inhibitor on TNF-treated cells was investigated. Proteasome inhibitors of the peptide aldehyde category are potent inhibitors of NF-κB activation (Palombello et al., Cell 78:773 (1994); Chen et al., Genes Dev. 9:1586 (1995)). […] Cell viability experiments were used to monitor the effectiveness of MG132 in enhancing TNF-induced cell killing.

`CC[C@]1(O)C[C@H]2CN(CCc3c([nH]c4ccccc34)[C@@](C(=O)OC)(c3cc4c(cc3OC)N(C=O)[C@H]3[C@@](O)(C(=O)OC)[C@H](OC(C)=O)[C@]5(CC)C=CCN6CC[C@]43[C@@H]65)C2)C1` [vincristine]: the “Cell killing in HT1080I versus HT1080V cells” value in test [1] (preliminary data, not shown) is given as “Cell killing in HT1080I cells was enhanced compared to that in HT1080V cells”.
With TNFα, the “Apoptotic morphology by TUNEL staining” value in test [2] is given as “only super-repressor IκBα expressing cells showed apoptotic morphology”. In addition, in test [3] (TNFα 20 ng/ml, varying times, FIG. 1A), the “Cell survival after TNFα, HT1080I versus HT1080V” value was “Cell survival was reduced in HT1080I cells compared to HT1080V controls”.
On to `CN[C@@H]1C[C@H]2O[C@@](C)([C@@H]1OC)n1c3ccccc3c3c4c(c5c6ccccc6n2c5c31)C(=O)NC4` [staurosporine], for which, in test [1] (HT1080I cells, data not shown), the “Apoptosis induced in IκBα expressing cells versus control” value is given as “not enhanced by the expression of IκBα”. Also, the “NF-κB nuclear translocation (EMSA) in control cells” value in the test on NF-κB [4] (HT1080V cells, 1 μM daunorubicin or 50 nM staurosporine) is listed as “did not activate NF-κB; also recorded: only slight nuclear translocation of NF-κB was evident”.
In the case of `CCc1c2c(nc3ccc(OC(=O)N4CCC(N5CCCCC5)CC4)cc13)-c1cc3c(c(=O)n1C2)COC(=O)[C@]3(O)CC` [CPT-11, irinotecan], in the test with NF-κB [5], the “Activation of NF-κB” value was “determined to activate NF-κB”.
For `CC(C)C[C@@H](C=O)NC(=O)[C@H](CC(C)C)NC(=O)[C@H](CC(C)C)NC(=O)OCc1ccccc1` [MG132, Z-leu-leu-leu-H] (Cbz-Leu-Leu-Leu-aldehyde), in the test with HT1080V cells, the “Enhancement of TNF-induced killing” value is on record as “strongly enhanced TNF-induced killing of HT1080V cells”.
With `COc1cccc2c1C(=O)c1c(O)c3c(c(O)c1C2=O)C[C@@](O)(C(C)=O)C[C@@H]3O[C@H]1C[C@H](N)[C@H](O)[C@H](C)O1` [daunorubicin], the “Cell survival after daunorubicin, HT1080I versus control cells” value in test [3] (0.1 to 2.0 μM for 24 hours, FIG. 3B) was “reduced in HT1080I cells”.
With “IL-1: an activator of NF-κB that does not initiate apoptosis”, the “Effect of pre-treatment on TNFα+CHX-induced apoptosis in HT1080V cells” value in test [3] (10 ng/ml IL-1β for 5 hours, then 10 μg/ml CHX and TNFα 0-50 ng/ml, FIG. 2A) was “inhibited TNFα+CHX-induced apoptosis in HT1080V cells”. The “Effect of pre-treatment on CHX+TNF-induced killing in HT1080I cells” value in test [3] (HT1080I cells, NF-κB activation blocked, FIG. 2A) is reported as “no protective effect”.

B1: super-repressor IκBα: mutant IκBα with serine to alanine mutations at residues 32 and 36; binds NF-κB and inhibits nuclear translocation (protein, UniProt P25963 1-317, looked up, variant S32A S36A)
NF-kappa-B inhibitor alpha: MFQAAERPQEWAMEGPRDGLKKERLLDDRHDAGLDAMKDEEYEQMVKELQEIRLEPQEVPRGSEPWKQQLTEDGDSFLHLAIIHEEKALTMEVIRQVKGDLAFLNFQNNLQQTPLHLAVITNQPEIAEALLGAGCDPELRDFRGNTPLHLACEQGCLASVGVLTQSCTTPHLHSILKATNYNGHTCLHLASIHGYLGIVELLVSLGADVNAQEPCNGRTALHLAVDLQNPDLVSLLLKCGADVNRVTYQGYSPYQLTWGRPSTRIQQQLGQLTLENLQMLPESEDEESYDTESEFTEFTEDELPYDDCVFGGQRLTL
Turning to B1, the “Effect on TNF-stimulated NF-κB nuclear translocation (EMSA)” value with NF-κB [4] (expressed in HT1080I cells, data not shown) is reported as “efficiently blocked TNF-stimulated NF-κB nuclear translocation”.

Source of the values: patent US7700543B2, “Use NF-κB inhibition in combination therapy for cancer” (The University of North Carolina at Chapel Hill, priority 1997, dated 2010).
